Laboratory results reported in the supplement of paper PMC11061612.

How the values were obtained:
SG3199 = compound: CC1=CN2[C@@H](C1)C=NC3=CC(=C(C=C3C2=O)OC)OCCCCCOC4=C(C=C5C(=C4)N=C[C@@H]6CC(=CN6C5=O)C)OC [SG3199]; settings: max 0.001 µM
Outline: (§1)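 In 1536-well plates, cancer cell lines in 7.5 μl DMEM/F12 or RPMI with 10% FBS spent 24 hours at 37°C and 5% CO2 and were then dosed for 72 hours with final DMSO typically 0.2%. Viability was read by CellTiter-Glo 2.0 luminescence and scaled between blank-well and DMSO-well means. The single-agent IC50 was fitted from dose responses using a logistic curve in a non-linear mixed effects model, and that logistic curve had two parameters.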

AZD8186 = compound: C[C@@H](Nc1cc(F)cc(F)c1)c1cc(C(=O)N(C)C)cc2c(=O)cc(N3CCOCC3)oc12 [AZD8186]; settings: max 3 µM
Outline: as §1

AZD2811 = compound: CCN(CCO)CCCOc1ccc2c(Nc3cc(CC(=O)Nc4cccc(F)c4)[nH]n3)ncnc2c1 [AZD2811]; settings: max 1 µM
Outline: as §1

MK-2206 = compound: NC1(c2ccc(-c3nc4ccn5c(=O)[nH]nc5c4cc3-c3ccccc3)cc2)CCC1 [MK-2206]; settings: max 10 µM
Outline: as §1

AZD5991 = compound: Cc1c2c(nn1C)CSCc1cc(n(C)n1)CSc1cc(c3ccccc3c1)OCCCc1c(C(=O)O)n(C)c3c-2c(Cl)ccc13 [AZD5991]; settings: max 1 µM
Outline: as §1

AZD6738 = compound: C[C@@H]1COCCN1C2=NC(=NC(=C2)C3(CC3)[S@](=N)(=O)C)C4=C5C=CNC5=NC=C4 [AZD6738]; settings: max 10 µM
Outline: as §1

Gefitinib = compound: COc1cc2ncnc(Nc3ccc(F)c(Cl)c3)c2cc1OCCCN1CCOCC1 [Gefitinib]; settings: max 10 µM
Outline: as §1

AZD4320 = compound: CN(CC[C@H](CSC1=CC=CC=C1)NC2=C(C=C(C=C2)S(=O)(=O)NC(=O)C3=CC=C(C=C3)N4CCC(CC4)[C@H](C5=CC=CC=C5C6=CC=C(C=C6)Cl)O)S(=O)(=O)C(F)(F)F)CCO [AZD4320]; settings: max 1 µM
Outline: as §1

Prexasertib = compound: COc1cccc(OCCCN)c1-c1cc(Nc2cnc(C#N)cn2)n[nH]1 [Prexasertib]; settings: max 1 µM
Outline: as §1

Dasatinib = compound: CC1=C(C(=CC=C1)Cl)NC(=O)C2=CN=C(S2)NC3=CC(=NC(=N3)C)N4CCN(CC4)CCO [Dasatinib]; settings: max 2 µM
Outline: as §1

Lapatinib = compound: CS(=O)(=O)CCNCc1ccc(-c2ccc3ncnc(Nc4ccc(OCc5cccc(F)c5)c(Cl)c4)c3c2)o1 [Lapatinib]; settings: max 10 µM
Outline: as §1

AZD1390 = compound: CC(C)n1c(=O)n(C)c2cnc3cc(F)c(-c4ccc(OCCCN5CCCCC5)nc4)cc3c21 [AZD1390]; settings: max 0.3 µM
Outline: as §1

AZD0156 = compound: CN(C)CCCOc1ccc(-c2ccc3ncc4c(c3c2)n(C2CCOCC2)c(=O)n4C)cn1 [AZD0156]; settings: max 3 µM
Outline: as §1

Crizotinib = compound: C[C@@H](Oc1cc(-c2cnn(C3CCNCC3)c2)cnc1N)c1c(Cl)ccc(F)c1Cl [Crizotinib]; settings: max 10 µM
Outline: as §1

AZD1775 = compound: C=CCn1c(=O)c2cnc(Nc3ccc(N4CCN(C)CC4)cc3)nc2n1-c1cccc(C(C)(C)O)n1 [AZD1775]; settings: max 3 µM
Outline: as §1

Palbociclib = compound: CC(=O)c1c(C)c2cnc(Nc3ccc(N4CCNCC4)cn3)nc2n(C2CCCC2)c1=O [Palbociclib]; settings: max 10 µM
Outline: as §1

Olaparib = compound: O=C(c1cc(Cc2n[nH]c(=O)c3ccccc23)ccc1F)N1CCN(C(=O)C2CC2)CC1 [Olaparib]; settings: max 10 µM
Outline: as §1

Doxorubicin = compound: COc1cccc2c1C(=O)c1c(O)c3c(c(O)c1C2=O)C[C@@](O)(C(=O)CO)C[C@@H]3O[C@H]1C[C@H](N)[C@H](O)[C@H](C)O1 [Doxorubicin]; settings: max 1 µM
Outline: as §1

Taselisib = compound: Cc1nc(-c2cn3c(n2)-c2ccc(-c4cnn(C(C)(C)C(N)=O)c4)cc2OCC3)n(C(C)C)n1 [Taselisib]; settings: max 10 µM
Outline: as §1

AZD7648 = compound: Cc1cc2ncnn2cc1Nc1ncc2c(n1)n(C1CCOCC1)c(=O)n2C [AZD7648]; settings: max 10 µM
Outline: as §1

Venetoclax = compound: CC1(C)CCC(CN2CCN(c3ccc(C(=O)NS(=O)(=O)c4ccc(NCC5CCOCC5)c([N+](=O)[O-])c4)c(Oc4cnc5[nH]ccc5c4)c3)CC2)=C(c2ccc(Cl)cc2)C1 [Venetoclax]; settings: max 1 µM
Outline: as §1

AZD5153 = compound: COc1nnc2ccc(N3CCC(c4ccc(OCCN5CCN(C)C(=O)[C@H]5C)cc4)CC3)nn12 [AZD5153]; settings: max 1 µM
Outline: as §1

Alisertib = compound: COc1cc(Nc2ncc3c(n2)-c2ccc(Cl)cc2C(c2c(F)cccc2OC)=NC3)ccc1C(=O)O [Alisertib]; settings: max 10 µM
Outline: as §1

SN-38 = compound: CCc1c2c(nc3ccc(O)cc13)-c1cc3c(c(=O)n1C2)COC(=O)[C@]3(O)CC [SN-38]; settings: max 0.3 µM
Outline: as §1

Capivasertib = compound: C1CN(CCC1(C(=O)N[C@@H](CCO)C2=CC=C(C=C2)Cl)N)C3=NC=NC4=C3C=CN4 [Capivasertib]; settings: max 10 µM
Outline: as §1

Trametinib = compound: CC(=O)Nc1cccc(-n2c(=O)n(C3CC3)c(=O)c3c(Nc4ccc(I)cc4F)n(C)c(=O)c(C)c32)c1 [Trametinib]; settings: max 1 µM
Outline: as §1

Selumetinib = compound: Cn1cnc2c(F)c(Nc3ccc(Br)cc3Cl)c(C(=O)NOCCO)cc21 [Selumetinib]; settings: max 10 µM
Outline: as §1

Savolitinib = compound: C[C@@H](c1ccc2nccn2c1)n1nnc2ncc(-c3cnn(C)c3)nc21 [Savolitinib]; settings: max 1 µM
Outline: as §1

| Cell Line | IC50, cell viability 72 h (SG3199) [nM] | IC50, cell viability 72 h (AZD8186) [nM] | IC50, cell viability 72 h (AZD2811) [nM] | IC50, cell viability 72 h (MK-2206) [nM] | IC50, cell viability 72 h (AZD5991) [nM] | IC50, cell viability 72 h (AZD6738) [nM] | IC50, cell viability 72 h (Gefitinib) [nM] | IC50, cell viability 72 h (AZD4320) [nM] | IC50, cell viability 72 h (Prexasertib) [nM] | IC50, cell viability 72 h (Dasatinib) [nM] | IC50, cell viability 72 h (Lapatinib) [nM] | IC50, cell viability 72 h (AZD1390) [nM] | IC50, cell viability 72 h (AZD0156) [nM] | IC50, cell viability 72 h (Crizotinib) [nM] | IC50, cell viability 72 h (AZD1775) [nM] | IC50, cell viability 72 h (Palbociclib) [nM] | IC50, cell viability 72 h (Olaparib) [nM] | IC50, cell viability 72 h (Doxorubicin) [nM] | IC50, cell viability 72 h (Taselisib) [nM] | IC50, cell viability 72 h (AZD7648) [nM] | IC50, cell viability 72 h (Venetoclax) [nM] | IC50, cell viability 72 h (AZD5153) [nM] | IC50, cell viability 72 h (Alisertib) [nM] | IC50, cell viability 72 h (SN-38) [nM] | IC50, cell viability 72 h (Capivasertib) [nM] | IC50, cell viability 72 h (Trametinib) [nM] | IC50, cell viability 72 h (Selumetinib) [nM] | IC50, cell viability 72 h (Savolitinib) [nM] |
| --- | --- | --- | --- | --- | --- | --- | --- | --- | --- | --- | --- | --- | --- | --- | --- | --- | --- | --- | --- | --- | --- | --- | --- | --- | --- | --- | --- | --- |
| ETK-1 (Biliary Tract Carcinoma) | > 1 | > 3000 | > 1000 | > 10000 | > 1000 | 6850 | > 10000 | > 1000 | 563 | 580 | 6780 | > 300 | > 3000 | > 10000 | 1020 | > 10000 | > 10000 | > 1000 | 3330 | > 10000 | > 1000 | > 1000 | 6570 | 227 | > 10000 | > 1000 | > 10000 | > 1000 |
| HCC1143 (Breast Carcinoma) | > 1 | > 3000 | > 1000 | > 10000 | > 1000 | 2870 | > 10000 | > 1000 | 19 | > 2000 | > 10000 | > 300 | > 3000 | > 10000 | 1050 | > 10000 | > 10000 | > 1000 | 5950 | > 10000 | > 1000 | > 1000 | > 10000 | 237 | > 10000 | > 1000 | > 10000 | > 1000 |
| HOP-92 (Non-Small Cell Lung Carcinoma) | > 1 | > 3000 | > 1000 | > 10000 | > 1000 | > 10000 | > 10000 | 140 | 134 | > 2000 | > 10000 | > 300 | > 3000 | > 10000 | > 3000 | > 10000 | > 10000 | > 1000 | 6710 | > 10000 | > 1000 | > 1000 | > 10000 | 109 | > 10000 | 139 | > 10000 | > 1000 |
| HuO9 (Osteosarcoma) | > 1 | > 3000 | > 1000 | 8020 | 64.2 | 1160 | > 10000 | 171 | 46.3 | > 2000 | > 10000 | > 300 | > 3000 | 7070 | 307 | > 10000 | > 10000 | 322 | 511 | > 10000 | > 1000 | 275 | 5740 | 3.15 | > 10000 | > 1000 | > 10000 | > 1000 |
| JHH-6 (Hepatocellular Carcinoma) | > 1 | > 3000 | > 1000 |  | > 1000 | > 10000 | > 10000 | > 1000 | > 1000 | > 2000 | > 10000 | > 300 | > 3000 | > 10000 | > 3000 | > 10000 | > 10000 | > 1000 | > 10000 | > 10000 | > 1000 | 922 | > 10000 | > 300 | > 10000 | > 1000 | > 10000 | > 1000 |
| KG-1 (Acute Myeloid Leukemia) | > 1 | > 3000 | > 1000 |  | 83.7 | 5630 | > 10000 | 96.9 | 45.8 | > 2000 | > 10000 | > 300 | > 3000 | > 10000 | 662 | > 10000 | > 10000 | > 1000 | > 10000 | > 10000 | 550 | 216 | 774 | 13.2 | > 10000 | > 1000 | > 10000 | > 1000 |
| MCF7 (Breast Carcinoma) | > 1 | > 3000 | > 1000 | 8680 | 838 | 6710 | > 10000 | > 1000 | > 1000 | > 2000 | > 10000 | > 300 | > 3000 | > 10000 | > 3000 | > 10000 | > 10000 | > 1000 | 1390 | > 10000 | > 1000 | 343 | > 10000 | 53.2 | 8440 | > 1000 | > 10000 | > 1000 |
